Patent US12180207B2 (ARRAY BIOPHARMA INC., priority 2018, dated 2024)

What was measured:
[1] = molecular target: dephosphorylated FGFR1 (SEQ ID NO: 1, amino acids 458 to 765) (Homo sapiens (Human), UniProt P11362); assay: FGFR enzyme binding assay (HTRF tracer displacement), FGFR1; details: 5 nM dephosphorylated FGFR1, average of multiple determinations if made
In short: (§1)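 Compounds were tested for displacement of a tracer from human FGFR kinase in a time-resolved FRET binding format. After 60 minutes at 22° C, signal was read at two wavelengths and converted to percent of control, normalised between untreated wells and 1 μM reference inhibitor.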

[2] = molecular target: HEK-293 cells transfected with dox-inducible human wild type FGFR3 (Homo sapiens (Human), UniProt P22607); assay: FGFR3 pERK cell assay; assay type: cell-based; details: HEK-293 dox-inducible FGFR3, 1 hour compound, 100 ng/ml FGF-acidic; maximum concentration 5 μM
In short: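 Doxycycline-induced cells preincubated 1 h at 37 °C with compound (1:3 dilutions, top 5 μM final), then stimulated 5 min with 100 ng/ml FGF-acidic. Lysate phospho-ERK1/2 measured by MSD sandwich assay; IC50 at 50 POC from 4-parameter fit, normalised to no-compound and control-compound wells.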

[3] = molecular target: HEK-293 cells transfected with dox-inducible human wild type FGFR1 (Homo sapiens (Human), UniProt P11362); assay: FGFR1 pERK cell assay; assay type: cell-based; details: HEK-293 dox-inducible FGFR1, 1 hour compound, 100 ng/ml FGF-acidic; maximum concentration 5 μM
In short: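 In HEK-293 cells with dox-induced human wild-type FGFR1, compounds (1:3 dilutions, top 5 μM final) were applied 1 h at 37°C before 5 min stimulation with 100 ng/ml FGF-acidic. Phospho-ERK1/2 measured by MSD sandwich immunoassay; IC50 from 4-parameter fit of POC versus vehicle and control compound.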

[4] = molecular target: phosphorylated FGFR3 (SEQ ID NO: 5, amino acids 449 to 759) (Homo sapiens (Human), UniProt P22607); assay: FGFR enzyme binding assay (HTRF tracer displacement), FGFR3; details: 5 nM phosphorylated FGFR3, average of multiple determinations if made
In short: as §1

[5] = molecular target: recombinant human FGFR2 cytoplasmic domain (amino acids 403-822) (Homo sapiens (Human), UniProt P21802); assay: FGFR2 enzyme activity assay (LanthaScreen TR-FRET); assay type: biochemical; details: 15 μM ATP, 20 min incubation at 22° C., average of multiple determinations if made, read-out: FGFR2 Enz FRET IC50
In short: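 His-tagged FGFR2 cytoplasmic domain ([…]) with 100 nM Alexa Fluor 647-poly-GT peptide and 15 μM ATP in HEPES/MgCl2/Triton buffer, pH 7.5, 2% DMSO, 20 min at 22 °C. EDTA-quenched, Eu-PY20 antibody added, TR-FRET read after 60 min.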

Sequence of recombinant human FGFR2 cytoplasmic domain (amino acids 403-822) (P21802 402-821): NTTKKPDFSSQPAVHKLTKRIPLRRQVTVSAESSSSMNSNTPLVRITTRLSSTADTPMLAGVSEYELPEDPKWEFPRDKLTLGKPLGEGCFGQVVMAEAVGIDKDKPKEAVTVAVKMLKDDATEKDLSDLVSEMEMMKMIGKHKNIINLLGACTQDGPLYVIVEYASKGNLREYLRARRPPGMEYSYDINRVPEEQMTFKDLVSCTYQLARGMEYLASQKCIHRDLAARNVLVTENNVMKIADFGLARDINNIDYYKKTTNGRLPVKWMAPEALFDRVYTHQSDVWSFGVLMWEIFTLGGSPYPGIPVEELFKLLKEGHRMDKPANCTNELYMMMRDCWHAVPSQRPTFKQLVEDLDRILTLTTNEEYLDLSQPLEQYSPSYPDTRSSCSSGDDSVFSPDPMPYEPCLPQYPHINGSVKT
Sequence of phosphorylated FGFR3 (SEQ ID NO: 5, amino acids 449 to 759) (P22607 449-759): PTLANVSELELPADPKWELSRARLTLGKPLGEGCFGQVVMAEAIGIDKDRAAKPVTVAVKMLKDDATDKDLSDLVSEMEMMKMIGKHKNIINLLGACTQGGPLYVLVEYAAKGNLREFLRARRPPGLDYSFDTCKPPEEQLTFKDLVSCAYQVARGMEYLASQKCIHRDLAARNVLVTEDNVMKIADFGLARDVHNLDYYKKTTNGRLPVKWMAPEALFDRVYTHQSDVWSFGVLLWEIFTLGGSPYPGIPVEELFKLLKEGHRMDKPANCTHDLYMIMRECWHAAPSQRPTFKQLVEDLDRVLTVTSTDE
Sequence of HEK-293 cells transfected with dox-inducible human wild type FGFR1 (P11362 22-822): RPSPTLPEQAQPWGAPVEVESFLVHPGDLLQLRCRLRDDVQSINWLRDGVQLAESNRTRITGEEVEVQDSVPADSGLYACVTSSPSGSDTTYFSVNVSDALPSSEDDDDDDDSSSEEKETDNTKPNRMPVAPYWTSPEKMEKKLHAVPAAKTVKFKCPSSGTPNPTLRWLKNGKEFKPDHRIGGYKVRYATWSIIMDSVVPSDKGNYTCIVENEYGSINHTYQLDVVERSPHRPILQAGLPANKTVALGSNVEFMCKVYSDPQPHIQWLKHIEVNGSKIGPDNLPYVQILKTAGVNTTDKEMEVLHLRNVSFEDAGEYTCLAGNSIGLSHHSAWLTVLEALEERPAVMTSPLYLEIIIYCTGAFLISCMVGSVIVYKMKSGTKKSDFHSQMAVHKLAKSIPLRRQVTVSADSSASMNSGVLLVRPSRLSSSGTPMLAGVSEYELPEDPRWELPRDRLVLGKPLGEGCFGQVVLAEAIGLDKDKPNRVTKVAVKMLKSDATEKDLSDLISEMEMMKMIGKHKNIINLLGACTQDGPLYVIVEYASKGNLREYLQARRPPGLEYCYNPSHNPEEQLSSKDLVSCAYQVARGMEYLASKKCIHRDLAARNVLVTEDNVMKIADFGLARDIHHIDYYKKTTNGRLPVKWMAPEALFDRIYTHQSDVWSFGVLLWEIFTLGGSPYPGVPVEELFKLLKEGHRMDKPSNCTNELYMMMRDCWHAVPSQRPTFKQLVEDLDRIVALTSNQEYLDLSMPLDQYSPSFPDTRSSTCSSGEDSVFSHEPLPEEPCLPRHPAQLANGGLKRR
Sequence of dephosphorylated FGFR1 (SEQ ID NO: 1, amino acids 458 to 765) (P11362 458-765): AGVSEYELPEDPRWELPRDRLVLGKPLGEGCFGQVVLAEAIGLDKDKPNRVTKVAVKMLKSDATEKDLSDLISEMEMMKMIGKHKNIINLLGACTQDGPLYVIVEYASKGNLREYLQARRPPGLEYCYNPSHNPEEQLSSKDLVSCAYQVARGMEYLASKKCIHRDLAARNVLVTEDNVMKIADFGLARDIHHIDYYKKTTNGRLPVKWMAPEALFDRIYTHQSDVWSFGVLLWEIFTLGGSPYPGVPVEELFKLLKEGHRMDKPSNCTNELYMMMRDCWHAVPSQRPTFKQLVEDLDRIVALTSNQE
Sequence of HEK-293 cells transfected with dox-inducible human wild type FGFR3 (P22607 23-806): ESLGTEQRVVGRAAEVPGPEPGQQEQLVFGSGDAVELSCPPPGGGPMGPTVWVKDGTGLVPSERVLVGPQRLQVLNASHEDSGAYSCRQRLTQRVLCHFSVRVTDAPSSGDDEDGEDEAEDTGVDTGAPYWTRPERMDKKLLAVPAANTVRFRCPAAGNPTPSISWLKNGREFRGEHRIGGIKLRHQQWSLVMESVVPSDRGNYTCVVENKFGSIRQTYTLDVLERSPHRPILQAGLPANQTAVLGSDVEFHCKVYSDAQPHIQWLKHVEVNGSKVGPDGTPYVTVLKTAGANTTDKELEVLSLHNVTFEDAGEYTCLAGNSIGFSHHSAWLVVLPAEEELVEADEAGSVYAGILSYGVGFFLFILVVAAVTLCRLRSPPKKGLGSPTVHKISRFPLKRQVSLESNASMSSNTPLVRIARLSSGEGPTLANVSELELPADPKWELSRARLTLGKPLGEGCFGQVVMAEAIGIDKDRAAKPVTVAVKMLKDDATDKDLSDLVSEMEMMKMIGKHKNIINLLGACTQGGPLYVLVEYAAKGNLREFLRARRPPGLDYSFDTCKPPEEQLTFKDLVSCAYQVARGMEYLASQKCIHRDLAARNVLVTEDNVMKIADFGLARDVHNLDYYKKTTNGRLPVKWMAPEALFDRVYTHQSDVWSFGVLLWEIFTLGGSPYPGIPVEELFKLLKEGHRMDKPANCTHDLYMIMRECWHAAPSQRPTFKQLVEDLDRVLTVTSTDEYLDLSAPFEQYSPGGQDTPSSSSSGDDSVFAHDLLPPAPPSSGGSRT

IC50 [1] [nM] | IC50 [2] [nM] | IC50 [3] [nM] | IC50 [4] [nM] | IC50 [5] [nM] | Compound
82 | 21 | 122 | 4 | 9 | C=CC(=O)N1CC(F)(C(=O)N2CCN(c3ccc(-c4cc(OC)c5c(C#N)cnn5c4)cn3)CC2)C1 [Example 112, 6-(6-(4-(1-acryloyl-3-fluoroazetidine-3-carbonyl)piperazin-1-yl)pyridin-3-yl)-4-methoxypyrazolo[1,5-a]pyridine-3-carbonitrile]
55 | 47 | 116 | 11 | 7 | C=CC(=O)N1CC(CN2C[C@H]3C[C@@H]2CN3c2ccc(-c3cc(OC)c4c(C#N)cnn4c3)cn2)C1 [Example 108, 6-(6-((1R,4R)-5-((1-acryloylazetidin-3-yl)methyl)-2,5-diazabicyclo[2.2.1]heptan-2-yl)pyridin-3-yl)-4-methoxypyrazolo[1,5-a]pyridine-3-carbonitrile]
565 | 50 | 591 | 8 | 219 | C=CC(=O)N1CC(CN2CCC(n3ncc(-c4cc(OC)c5c(Cl)cnn5c4)c3C)CC2)(OC)C1 [Example 119, 1-(3-((4-(4-(3-chloro-4-methoxypyrazolo[1,5-a]pyridin-6-yl)-5-methyl-1H-pyrazol-1-yl)piperidin-1-yl)methyl)-3-methoxyazetidin-1-yl)prop-2-en-1-one]
57 | 21 | 180 | 5 | 5 | C=CC(=O)N1CC(C(=O)N2CCN(c3ccc(-c4cc(OC)c5c(C#N)cnn5c4)cc3)CC2)C1 [Example 100, 6-(4-(4-(1-acryloylazetidine-3-carbonyl)piperazin-1-yl)phenyl)-4-methoxypyrazolo[1,5-a]pyridine-3-carbonitrile]
171 | 592 | 1960 | 11 | 9 | C=CC(=O)N1CC(CN2CCC(n3ncc(-c4cc(OC)c5c(C#N)cnn5c4)c3C)CC2)C1(C)C (stereo not drawn) [Example 151, 6-(1-(1-((1-acryloyl-2,2-dimethylazetidin-3-yl)methyl)piperidin-4-yl)-5-methyl-1H-pyrazol-4-yl)-4-methoxypyrazolo [1,5-a]pyridine-3-carbonitrile]
72 | 146 | 1110 | 12 | 20 | C=CC(=O)N1CC(C(=O)N2CC3(C2)CN(c2ccc(-c4cc(OC)c5c(C#N)cnn5c4)cn2)C3)C1 [Example 104, 6-(6-(6-(1-acryloylazetidine-3-carbonyl)-2,6-diazaspiro[3.3]heptan-2-yl)pyridin-3-yl)-4-methoxypyrazolo[1,5-a]pyridine-3-carbonitrile]
589 | 133 | 1620 | 5 | 31 | COc1cc(-c2c(C)nn(C3CCN(C(=O)C4(F)CN(C(=O)/C=C/CN(C)C)C4)CC3)c2C)cn2ncc(C#N)c12 [Example 161, (E)-6-(1-(1-(1-(4-(dimethylamino)but-2-enoyl)-3-fluoroazetidine-3-carbonyl)piperidin-4-yl)-3,5-dimethyl-1H-pyrazol-4-yl)-4-methoxypyrazolo [1,5-a]pyridine-3-carbonitrile]
14 | 6 | 35 | 2 | 8 | C=CS(=O)(=O)N1CCC(C(=O)N2CCC(n3cc(-c4cc(OC)c5c(C#N)cnn5c4)cn3)CC2)CC1 [Example 186, 4-methoxy-6-(1-(1-(1-(vinylsulfonyl)piperi-dine-4-carbonyl)piperidin-4-yl)-1H-pyrazol-4-yl)pyrazolo[1,5-a]pyridine-3-carbonitrile]
114 | 25 | 169 | 3 | 13 | C=CC(=O)N1CC(F)(C(=O)N2CCC(n3cc(-c4cc(OC)c5c(Cl)cnn5c4)cn3)CC2)C1 [Example 121, 1-(3-(4-(4-(3-chloro-4-methoxypyrazolo[1,5-a]pyridin-6-yl)-1H-pyrazol-1-yl)piperidine-1-carbonyl)-3-fluoroazetidin-1-yl)prop-2-en-1-one]
850 | 248 | 1310 | 63 | 150 | C=CC(=O)N1CC(F)(C(=O)N2CCN(c3cc(C)c(-c4cc(OC)c5c(C#N)cnn5c4)cn3)CC2)C1 [Example 114, 6-(6-(4-(1-acryloyl-3-fluoroazetidine-3-carbonyl)piperazin-1-yl)-4-methylpyridin-3-yl)-4-methoxypyrazolo[1,5-a]pyridine-3-carbonitrile]
144 | 34 | 288 | 11 | 4 | C=CC(=O)N1CC(C(=O)N2CCN(c3ccc(-c4cc(OC)c5c(C#N)cnn5c4)cn3)CC2)C1 [Example 111, 6-(6-(4-(1-acryloylazetidine-3-carbonyl)piperazin-1-yl)pyridin-3-yl)-4-methoxypyrazolo[1,5-a]pyridine-3-carbonitrile]
210 | 25 | 2 | 2 | 4 | COc1cc(-c2cnn(C3CCN(C(=O)C4(F)CN(C(=O)/C=C/CN(C)C)C4)CC3)c2C)cn2ncc(C#N)c12 [Example 153, (E)-6-(1-(1-(1-(4-(dimethylamino)but-2-enoyl)-3-fluoroazetidine-3-carbonyl)piperidin-4-yl)-5-methyl-1H-pyrazol-4-yl)-4-methoxypyrazolo [1,5-a]pyridine-3-carbonitrile]
144 | 30 | 737 | 3 | 7 | COc1cc(-c2cnn(C3CCN(CC4(OC)CN(C(=O)/C=C/CN(C)C)C4)CC3)c2C)cn2ncc(C#N)c12 [Example 159, (E)-6-(1-(1-((1-(4-(dimethylamino)but-2-enoyl)-3-methoxyazetidin-3-yl)methyl)piperidin-4-yl)-5-methyl-1H-pyrazol-4-yl)-4-methoxypyrazolo [1,5-a]pyridine-3-carbonitrile]
400 | 142 | 523 | 33 | 39 | C=CC(=O)N1CC(CN2CCC(n3ncc(-c4cc(OC)c5c(Cl)cnn5c4)c3C)CC2)C1(C)C (stereo not drawn) [Example 120, 1-(3-((4-(4-(3-chloro-4-methoxypyrazolo[1,5-a]pyridin-6-yl)-5-methyl-1H-pyrazol-1-yl)piperidin-1-yl)methyl)-2,2-dimethylazetidin-1-yl)prop-2-en-1-one]
320 | 849 | ≥ 5000 | 7 | 35 | COc1cc(-c2cnn(C3CCN(C(=O)C4CN(C(=O)/C=C/CN(C)C)C4)CC3)c2C)cn2ncc(C#N)c12 [Example 152, (E)-6-(1-(1-(1-(4-(dimethylamino)but-2-enoyl)azetidine-3-carbonyl)piperidin-4-yl)-5-methyl-1H-pyrazol-4-yl)-4-methoxypyrazolo [1,5-a]pyridine-3-carbonitrile]
598 | 91 | 3110 | 18 | 84 | CC#CC(=O)N1CC(F)(C(=O)N2CCC(n3ncc(-c4cc(OC)c5c(C#N)cnn5c4)c3C)CC2)C1 [Example 156, 6-(1-(1-(1-(but-2-ynoyl)-3-fluoroazetidine-3-carbonyl)piperidin-4-yl)-5-methyl-1H-pyrazol-4-yl)-4-methoxypyrazolo [1,5-a]pyridine-3-carbonitrile]
430 | 122 | 2630 | 19 | 16 | COC/C=C/C(=O)N1CC(F)(C(=O)N2CCC(n3ncc(-c4cc(OC)c5c(C#N)cnn5c4)c3C)CC2)C1 [Example 154, (E)-6-(1-(1-(3-fluoro-1-(4-methoxybut-2-enoyl)azetidine-3-carbonyl)piperidin-4-yl)-5-methyl-1H-pyrazol-4-yl)-4-methoxypyrazolo [1,5-a]pyridine-3-carbonitrile]

Compound | IC50 [1] [nM] | IC50 [2] [nM] | IC50 [3] [nM] | IC50 [4] [nM] | IC50 [5] [nM]
C=CC(=O)N1CC(C(=O)N2CC3CC(C2)N3c2ccc(-c3cc(OC)c4c(C#N)cnn4c3)cn2)C1 [Example 105, 6-(6-(3-(1-acryloylazetidine-3-carbonyl)-3,6-diazabicyclo[3.1.1]heptan-6-yl)pyridin-3-yl)-4-methoxypyrazolo[1,5-a]pyridine-3-carbonitrile] | 435 | 2660 | 3960 | 97 | 42
